The target of experiment [1] is T1, FimH lectin domain (Escherichia coli, UniProt P08191). The note with it: read-out: Kd SPR; solution affinity by SPR; cited from earlier work. Background: SPR reads the build-up and loss of mass on a sensor chip optically.
In the next experiment the target is FimH. The settings on record: Tables 1-3; read-out: Kd ITC (converted); cited from earlier work.
In experiment [2] the target is T1, FimH lectin domain. Briefly: biochemical. It counts as binding, E. coli strain J96.
Experiment [3] deals with T1, FimH lectin domain. Briefly: SPR direct binding of FimH to receptor immobilized on sensor chip (steady state affinity). More on the design: species or system E. coli strain J96. The settings on record: Ss: steady state affinity (Kd), direct binding of FimH to 5b coupled to CM5 sensor chip.
Protocol: The equilibrium dissociation constant Kd of FimH for the mannose derivatives was determined using a competition assay in solution. In this assay, the mannose derivatives compete with an immobilized Fab fragment from the monoclonal anti-FimH antibody 1C10 or with an immobilized 8-aminooctyl α-D-mannopyranoside (5b) for FimH binding, as described earlier [34]. The global kinetic constants ka, kd and Rmax of the FimH-ligand interaction of binding were fitted using the BiaEval software.

This is an account of results in paper PMC6152123, “Sites for Dynamic Protein-Carbohydrate Interactions of O- and C-Linked Mannosides on the E. coli FimH Adhesin” (Molecules : A Journal of Synthetic Chemistry and Natural …, 2017).

Where “and” joins values, the source holds several entries; their conditions need not be identical. Equal values may be shown once. Read-outs that look alike come from different tables or passages of the source.

T1 sequence (P08191 22-179 limits assumed): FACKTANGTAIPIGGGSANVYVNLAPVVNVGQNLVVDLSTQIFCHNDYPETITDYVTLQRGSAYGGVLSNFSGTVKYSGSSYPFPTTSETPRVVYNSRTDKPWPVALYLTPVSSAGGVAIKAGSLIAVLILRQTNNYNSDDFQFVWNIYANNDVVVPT

In general, Kd refers to the equilibrium constant for the complex coming apart. On to `CCCCCCCO[C@H]1O[C@H](CO)[C@@H](O)[C@H](O)[C@@H]1O` [Compound 5, heptyl α-D-mannopyranoside, reference compound], for which the Kd was 4.3 ± 0.3 nM at FimH lectin domain [1]; 7.3 nM at FimH; 4.32e-09 M on FimH lectin domain [2] (KD(M), Figure S19, fit of solution affinity model to inhibition curve). Further, the “KA” value at FimH lectin domain [2] (Figure S19, fit of solution affinity model to inhibition curve) worked out at 231691100 M⁻¹.

In the case of `NCCCCCCCCO[C@H]1O[C@H](CO)[C@@H](O)[C@H](O)[C@@H]1O` [Compound 5b, 8-aminooctyl α-D-mannopyranoside], the Kd at FimH lectin domain [2] (Kd SPR (nM), solution affinity by SPR competition, Tables 1-3) is 1.8e-08 ± 4e-10 M; at FimH lectin domain [3] it was 16.9 nM and 17 nM.
